Assay results reported in patent EP0453119A1, “Modified beta adrenergic receptor” (MERCK & CO. INC., priority 1990, dated 1991).

How the values were obtained:
Wild-type βAR = molecular target: T1, Wild-type βAR (Mesocricetus auratus, UniProt P04274); assay: Adenylyl cyclase stimulation in membranes of mouse L cells expressing the wild-type receptor; format: biochemical, hamster
T1 construct: pSVHAC contains the full length hamster ß₂AR cDNA cloned into the EcoRI site of pSVL; expressed in transfected cells; host or cells: mouse L cells (clonal lines, membranes)
T1 sequence (P04274 whole entry): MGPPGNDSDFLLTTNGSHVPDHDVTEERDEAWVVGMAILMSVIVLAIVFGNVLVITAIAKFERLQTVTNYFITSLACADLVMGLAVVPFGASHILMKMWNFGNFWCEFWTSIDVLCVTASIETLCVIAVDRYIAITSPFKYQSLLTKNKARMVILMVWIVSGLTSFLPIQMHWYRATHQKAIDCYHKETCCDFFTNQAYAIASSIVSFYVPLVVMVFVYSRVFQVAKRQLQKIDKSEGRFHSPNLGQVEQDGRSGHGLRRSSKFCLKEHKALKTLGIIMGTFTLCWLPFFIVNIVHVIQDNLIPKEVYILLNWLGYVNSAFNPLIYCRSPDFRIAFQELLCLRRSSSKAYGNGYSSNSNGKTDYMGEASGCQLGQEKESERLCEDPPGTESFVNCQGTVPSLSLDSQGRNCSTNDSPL
Method: (§1) Expression in mammalian cells. For the establishment of clonal cell lines expressing mutant receptors, the plasmid DNAs were transfected into mouse L cells by the CaPO₄ procedure. […] The precipitate was added to the media covering subconfluent monolayers of mouse L cells in 100 mm petri dishes and incubated at 37°C for 4 hrs. The media was removed and the cells were washed once with Dulbecco's modified minimal essential medium (DMEM). […] DMEM containing 10% fetal bovine serum was then added to the monolayers and the cells were incubated at 37°C for 12-18 hrs. The medium was changed to DMEM containing 10% fetal bovine serum and […] genticin to select for cells containing the expression vector. […] Individual colonies were isolated and expanded into cell lines.
(§2) Membranes were prepared from L cell monolayers by hypotonic lysis in 10 mM Tris, pH 7.5 for 10 min at 4°C.
(§3) The reaction was allowed to proceed for 30 min at 30°C before it was quenched at 4°C with an excess of unlabeled ATP. The ³²P-cAMP produced was determined by Dowex and alumina chromatography, as described by Salomon et al., supra.
Data Analysis. […] The Michaelis-Menton equation was used: V=Vmax[A]/Kact+[A], where V is the level of cyclase stimulation (in pmol ³²P-cAMP/mg protein/min) measured at a given agonist concentration [A], and Vmax is the calculated maximal stimulation at infinite agonist concentration.

[Ser^113]βAR = molecular target: T2, [Ser^113]βAR (Mesocricetus auratus, UniProt P04274, D113S); assay: Adenylyl cyclase stimulation in membranes of mouse L cells expressing the mutant receptor; format: biochemical, hamster; conditions: result in words, acids compared with the corresponding esters
T2 construct: pSVHAC contains the full length hamster ß₂AR cDNA cloned into the EcoRI site of pSVL; expressed in transfected cells; host or cells: mouse L cells (clonal lines, membranes)
T2 sequence (P04274 whole entry D113S): as the sequence (P04274 whole entry) above, with D113S counted along it
Method: Mutagenesis of the ßAR gene. […] Other standard cloning techniques were performed as described by the former Manual and would be easily reproduced by anyone trained in molecular biology. An oligonucleotide 19 nucleotides in length complementary to the phage DNA surrounding the codon for Asp¹¹³ were synthesized using an Applied Biosystems Model 3A DNA synthesizer. The oligonucleotide contained mismatched positions in order to convert the codon for Asp¹¹³ (GAT) to Ser ([…]). The oligonucleotide was annealed to the phage DNA for priming and extended using Klenow DNA polymerase and T4 DNA ligase. […] The ßAR gene in this vector utilizes the SV40 early promoter, the modified splice signal, and the ßAR polyadenylation site for expression. The ligated mixture was transformed into E. coli strain DH5 (Bethesda Research Laboratories) and ampicillin resistant colonies were screened by filter hybridization using the oligonucleotide corresponding to the mutation as the hybridization probe. Plasmids were isolated from several hybridization positive colonies and mapped to insure the proper DNA insert was contained in the clone. The mutations were resolved by retransformation of the plasmid DNA into E. coli. Mutant plasmid containing colonies were again isolated by filter hybridization as above. Plasmid DNA was isolated from overnight cultures of cells by alkaline lysis and twice banding in CsCl-ethidium bromide equilibrium density gradients. […] The purity of the plasmid preparation was tested by retransformation of the DNA into E. coli followed by colony hybridization. […] Plasmid DNA was isolated as above and confirmed by restriction mapping.
as §1, §2, §3
Data Analysis. Activation constant (Kact) values for adenylyl cyclase stimulation were obtained by computer assisted nonlinear regression analysis of curves generated in the presence of increasing concentrations of compounds. The Michaelis-Menton equation was used: V=Vmax[A]/Kact+[A], where V is the level of cyclase stimulation (in pmol ³²P-cAMP/mg protein/min) measured at a given agonist concentration [A], and Vmax is the calculated maximal stimulation at infinite agonist concentration.

[Ser¹¹³]ßAR = molecular target: T3, [Ser¹¹³]ßAR (Mesocricetus auratus, UniProt P04274, D113S); set-up: species or system hamster; conditions: COS-7 cell membranes; equilibrium binding
T3 construct: pSVHAC contains the full length hamster ß₂AR cDNA cloned into the EcoRI site of pSVL; expressed in transfected cells; host or cells: COS-7 cells (membranes)
T3 sequence (P04274 whole entry D113S): as the sequence (P04274 whole entry) above, with D113S counted along it
Method: Membrane Preparation. COS-7 cell monolayers were washed 3 times in PBS, scraped from the flask with a rubber policeman, and centrifuged at 2000 x g for 5 min. The cell pellet was resuspended in 75 mM Tris, pH 7.4, 12.5 mM MgCl₂, […] EDTA (TME buffer) at a concentration of 10⁸ cells/ml, then diluted 1:5 with water and lysed by freezing in liquid N₂ and thawing with vigorous vortexing. Nuclei were removed by centrifugation over a cushion of 60% sucrose at 2500 x g for 15 min. The upper layer was collected, membranes pelleted by centrifugation at 40,000 x g for 15 min,and resuspended in TME at a protein concentration of 1-2 mg/ml.
Receptor Assays. ¹²⁵I-CYP binding to membranes was measured in a final volume of 250 ul of TME buffer, containing […] of membrane protein and 225 pM ¹²⁵I-CYP for 90 min at 23°C, as previously described Dixon et al. (1987), supra. Membranes were collected by filtration on GF/C glass fiber filters and bound ¹²⁵I-CYP was detected with a gamma counter. Nonspecific binding, measured in the presence of […] alprenolol, was subtracted from the total binding.

SMILES: CNC[C@H](O)c1ccc(O)c(O)c1 [Compound 2, epinephrine]
- EC50 (Wild-type βAR): 300 nM

SMILES: CCOC(=O)CCc1ccc(O)c(O)c1 [Compound 5]
- activation of [Ser¹¹³]ßAR ([Ser^113]βAR): activated

SMILES: O=C(O)CCc1ccc(O)c(O)c1 [Compound 6]
- activation of [Ser¹¹³]ßAR ([Ser^113]βAR): less effective

SMILES: COC(=O)/C=C/c1ccc(O)c(O)c1 [Compound 7]
- activation of [Ser¹¹³]ßAR ([Ser^113]βAR): activated

SMILES: O=C(O)/C=C/c1ccc(O)c(O)c1 [Compound 8]
- activation of [Ser¹¹³]ßAR ([Ser^113]βAR): less effective

SMILES: CCOC(=O)C(=O)Cc1ccc(O)c(O)c1 [Compound 9]
- activation of [Ser¹¹³]ßAR ([Ser^113]βAR): activated

SMILES: O=C(O)C(=O)Cc1ccc(O)c(O)c1 [Compound 10]
- activation of [Ser¹¹³]ßAR ([Ser^113]βAR): less effective

SMILES: CCOC(=O)Cc1ccc(O)c(O)c1 [Compound 11]
- activation of [Ser¹¹³]ßAR ([Ser^113]βAR): activated

SMILES: CCOC(=O)C(O)c1ccc(O)c(O)c1 (centres unmarked) [Compound 12]
- activation of [Ser¹¹³]ßAR ([Ser^113]βAR): weakly

SMILES: CCOC(=O)CC(O)c1ccc(O)c(O)c1 (centres unmarked) [Compound 13]
- activation of [Ser¹¹³]ßAR ([Ser^113]βAR): activated

SMILES: CC(C)(C)NCC(O)COc1cccc2[nH]c(C#N)c([125I])c12 (centres unmarked) [¹²⁵I-CYP, ¹²⁵I-cyanopindolol]
- ¹²⁵I-CYP binding ([Ser¹¹³]ßAR): did not bind detectable levels
